Source: patent publication US11059780B2, “Substituted pyrrolidine compound and use thereof” (Takeda Pharmaceutical Company Limited, priority 2017, dated 2021)

Each compound was assayed against T1, human orexin type 2 receptor (hOX2R) (Homo sapiens, UniProt O43614) (assay: Measurement of orexin type 2 receptor agonist activity (Fluo-4 calcium fluorescence, CHO cells forcibly expressing human OX2 receptor)). Conditions: test compound 3 μM, DMSO = 0%, orexin A (human) 10 nM = 100%.
T1 construct: expressed in transfected cells
T1 sequence (O43614 1-444): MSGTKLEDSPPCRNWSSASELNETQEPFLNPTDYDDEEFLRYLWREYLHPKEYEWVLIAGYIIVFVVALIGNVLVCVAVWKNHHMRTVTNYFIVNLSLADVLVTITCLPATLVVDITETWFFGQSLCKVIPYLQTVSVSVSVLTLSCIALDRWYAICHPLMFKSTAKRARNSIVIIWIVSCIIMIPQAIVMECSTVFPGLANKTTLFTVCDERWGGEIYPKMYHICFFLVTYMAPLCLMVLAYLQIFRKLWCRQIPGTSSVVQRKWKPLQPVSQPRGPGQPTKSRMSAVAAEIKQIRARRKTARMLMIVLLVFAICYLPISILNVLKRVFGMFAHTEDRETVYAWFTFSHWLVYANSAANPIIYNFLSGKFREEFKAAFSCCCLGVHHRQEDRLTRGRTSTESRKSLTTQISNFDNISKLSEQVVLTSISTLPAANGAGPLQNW
Type: cell-based
Procedure, shortened: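 CHO-dhfr cells stably expressing human OX2 receptor, loaded with Fluo-4 AM in HBSS/HEPES/BSA with probenecid, then given test compound at 3 μM. Calcium fluorescence recorded for about 2 min 40 s by FDSS; activity normalized to DMSO (0%) and 10 nM human orexin A (100%).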

Structure (SMILES)	OX2R agonist activity (3 μM, %)
COC1CN(C(=O)c2cc(C)ccc2C)CC1Oc1cccc(NS(=O)(=O)N2CC[C@H]3CCN(C)C[C@@H]32)c1 (relative stereo) [Example 76, trans-N-(3-((1-(2,5-dimethylbenzoyl)-4-methoxypyrrolidin-3-yl)oxy)phenyl)-6-methyloctahydro-1H-pyrrolo[2,3-c]pyridine-1-sulfonamide]	82%
CO[C@@H]1CN(C(=O)c2cc(C)ccc2C)C[C@H]1Oc1cccc(CS(=O)(=O)N2CCCC2c2ncccn2)c1 (relative stereo) [Example 38, trans-(2,5-dimethylphenyl)(3-methoxy-4-(3-(((2-(pyrimidin-2-yl)pyrrolidin-1-yl)sulfonyl)methyl)phenoxy)pyrrolidin-1-yl)methanone]	98%
CO[C@@H]1CN(C(=O)c2cc(C)ccc2C)C[C@H]1Oc1cccc(NS(=O)(=O)N(C)C2CCOC2)c1 (relative stereo) [Example 46, trans-N′-(3-((1-(2,5-dimethylbenzoyl)-4-methoxypyrrolidin-3-yl)oxy)phenyl)-N-methyl-N-(tetrahydrofuran-3-yl)sulfuric diamide]	94%
COC1CN(C(=O)c2cc(C)ccc2C)CC1Oc1cccc(NS(=O)(=O)N2C[C@H]3C[C@H]2C3)c1 (relative stereo) [Example 64, trans-N-(3-((1-(2,5-dimethylbenzoyl)-4-methoxypyrrolidin-3-yl)oxy)phenyl)-2-azabicyclo[2.1.1]hexane-2-sulfonamide]	75%

Further lines, results first:

OX2R agonist activity (3 μM, %)	Structure (SMILES)
86%	CCc1ccc(C)c(C(=O)N2C[C@@H](OC)[C@H](Oc3cccc(CS(=O)(=O)N(C)C4CCOCC4)c3)C2)c1OC (relative stereo) [Example 164, trans-1-(3-((1-(3-ethyl-2-methoxy-6-methylbenzoyl)-4-methoxypyrrolidin-3-yl)oxy)phenyl)-N-methyl-N-(tetrahydro-2H-pyran-4-yl)methanesulfonamide]
89%	CCc1cccc(C)c1C(=O)N1CC[C@H](Oc2cccc(CS(=O)(=O)N(C)C3CCOCC3)c2)C1 [Example 159, 1-(3-(((3S)-1-(2-ethyl-6-methylbenzoyl)pyrrolidin-3-yl)oxy)phenyl)-N-methyl-N-(tetrahydro-2H-pyran-4-yl)methansulfo]
